One assay deals with AKT phosphorylation. As to the kind of experiment: AKT phosphorylation in cells (macrophages) isolated from IPF BALF, MSD assay (Example 1). It is filed as cell-based. To be noted: Homo sapiens, Macrophage, 25 min; macrophages isolated from n=3 IPF BALFs; 25 minutes incubation; geometric mean (95% CI 0.28-1.08 nM); read-out: IC50 for inhibition of AKT phosphorylation. The text has this:
Phosphorylation of AKT is widely accepted as an indication of PI3-kinase activity, and is utilised here to obtain an IC50 for the effect of 2,4-difluoro-N-{2-(methyloxy)-5-[4-(4-pyridazinyl)-6-quinolinyl]-3-pyridinyl}benzenesulfonamide on primary human lung fibroblasts isolated from the IPF patients, in addition to macrophages isolated from IPF bronchoalveolar lavage (BALF).
In similar experiments, inhibition of AKT phosphorylation by 2,4-difluoro-N-{2-(methyloxy)-5-[4-(4-pyridazinyl)-6-quinolinyl]-3 pyridinyl}benzenesulfonamide is assessed in cells isolated from IPF BALF. Briefly, BAL cells are resuspended in 0.1% BSA RPMI media to a cell provide a cell count of 5.7×10^4-8.3×10^4 cells per well. BAL cells are added to a 96 well plate and incubated with a range of 2,4-difluoro-N-{2-(methyloxy)-5-[4-(4-pyridazinyl)-6-quinolinyl]-3 pyridinyl}benzenesulfonamide (0.1% DMSO and 0.1% BSA final concentration in the assay). After 25 minutes incubation at 37° C., 5% CO2 the plate is spun for 5 min at 1600 rpm. The supernatants are decanted and 40 μl of phosphosafe lysis buffer containing protease inhibitors is added to each well. The plate is then snap frozen in liquid nitrogen and stored at −80° C. prior to further analysis. Following thawing on ice, cell lysates are transferred onto phospho Akt, total Akt Meso Scale Discovery (MSD) capture plates and processed as described above.

The test system of assay [1] is AKT phosphorylation (pAKT) at position Ser473. As to the kind of experiment: FBS stimulated AKT (S473) phosphorylation in primary human lung fibroblasts, MSD assay (Example 2). In kind it is cell-based. To be noted: Fibroblast, 0.5 h, 20% FBS 30 minute, read-out: mean pIC50, AKT (S473) phosphorylation (converted). Here is the method:
Primary human fibroblasts were isolated by explant culture from non-IPF lung tissue, obtained post mortem following sudden trauma, and IPF lung tissue obtained from the lungs of IPF patients which were removed for transplantation or biopsy. Explants were cultured in DMEM containing high glucose and sodium pyruvate (PAA laboratories, catalogue #E15-011) with penicillin/streptomycin (Sigma #P4333), amphotericin B (Sigma #A2942), L-glutamine (Gibco #25030) and 20% FBS (foetal bovine serum, Lonza, catalogue #14-801F, Lot #1SB003) at 37° C., 100% humidity, 10% CO2. Cells were designated non-IPF (UCL marked 0110 and 0610) and IPF (UCL marked 0207, 0208, 0308, 0507 and 0508) based on medical diagnosis.
Human lung primary fibroblast cell lines were cultured in DMEM containing high glucose and sodium pyruvate supplemented with L-glutamine, penicillin/streptomycin and 10% FBS (complete DMEM) at 37° C., 100% humidity, 10% CO2. Cells were split into T175 flasks (NUNC #159910) 2 to 3 days prior to assay set-up at a density which yields approximately 70-80% confluence at time of harvest for assay. Cells were harvested using 0.25% trypsin-EDTA (Gibco #25300), washed and re-suspended in complete DMEM. Cell counts were performed on the cell suspension using a Handheld Automated Cell Counter (Millipore #PHCC00000) with 60 μm sensors (Millipore #PHCC60050). […]

Read-outs that look alike come from different tables or passages of the source.

On to `COc1ncc(-c2ccc3nccc(-c4ccnnc4)c3c2)cc1NS(=O)(=O)c1ccc(F)cc1F` [2,4-difluoro-N-{2-(methyloxy)-5-[4-(4-pyridazinyl)-6-quinolinyl]-3-pyridinyl}benzenesulfonamide], for which the IC50 in the assay with AKT phosphorylation is 0.54 nM; in assay [1] (IPF fibroblasts, n=5 cell lines (+/-0.1 SEM)) it was 1.58 nM; in assay [1] (primary human non-IPF fibroblasts, n=2 lines (range 8.8-9.4)), 0.794 nM.

Source of the values: patent US20160067247A1, “NOVEL USE” (GlaxoSmithKline Intellectual Property (No.2) Limited, priority 2012, published 2016).
